One series deals with Aspergillus fumigatus. In words: Antifungal activity against Aspergillus fumigatus CMGCC3.7795 measured after 72 hrs by broth microdilution assay. The format is functional.
In a further series the test system is Nakaseomyces glabratus. In words: Antifungal activity against Candida glabrata measured after 24 hrs by broth microdilution assay. The format is functional. In general terms: Dilution methods test growth across graded concentrations, often in twofold steps.
The subject of the next series is Candida parapsilosis. Put plainly: Antifungal activity against Candida parapsilosis ATCC 22019 measured after 24 hrs by broth microdilution assay. The format is functional. The following applies: Lodderomyces parapsilosis.
Series [1] concerns Candida albicans. Put plainly: Antifungal activity against Candida albicans CPCC400616 measured after 24 hrs by broth microdilution assay. The series is classed as functional.
Another series concerns [Candida] zeylanoides. In words: Antifungal activity against Candida zeylanoides CMGCC2.3739 measured after 24 hrs by broth microdilution assay. The series is classed as functional. The conditions noted are these: Dujonia zeylanoides.
The subject of series [2] is Candida albicans. In words: Antifungal activity against fluconazole-resistant Candida albicans 632 assessed as inhibition of microbial growth after 24 hrs by broth microdilution method. The format is functional.
Series [3] concerns Candida albicans. Put plainly: Antifungal activity against fluconazole-resistant Candida albicans 901 assessed as inhibition of microbial growth after 24 hrs by broth microdilution method. The format is functional.
Series [4] has as its system Candida albicans. In words: Potency index, ratio of miconazole MIC to test compound MIC for Candida albicans CPCC400616 measured after 24 hrs by broth microdilution assay. The series is classed as functional.
The test system of series [5] is Candida albicans. Put plainly: Antifungal activity against fluconazole-resistant Candida albicans CaR assessed as inhibition of microbial growth after 24 hrs by broth microdilution method. The series is classed as functional.
For the next series, the system named is Cryptococcus neoformans. Put plainly: Antifungal activity against Cryptococcus neoformans CMGCC2.3161 measured after 72 hrs by broth microdilution assay. The series is classed as functional.
Another series concerns Pichia kudriavzevii. In words: Antifungal activity against Candida krusei AS2.1045 measured after 24 hrs by broth microdilution assay. The series is classed as functional.
Series [6] concerns Candida albicans. In words: Antifungal activity against fluconazole-resistant Candida albicans 17# assessed as inhibition of microbial growth after 24 hrs by broth microdilution method. The series is classed as functional.
Series [7] deals with Candida albicans. Put plainly: Antifungal activity against fluconazole-resistant Candida albicans 904 assessed as inhibition of microbial growth after 24 hrs by broth microdilution method. The series is classed as functional.
Series [8] deals with Candida albicans. Put plainly: Potency index, ratio of fluconazole MIC to test compound MIC for Candida albicans CPCC400616 measured after 24 hrs by broth microdilution assay. The format is functional.
Series [9] deals with Candida albicans. Put plainly: Antifungal activity against Candida albicans ATCC SC5314 measured after 24 hrs by broth microdilution assay. The series is classed as functional.
Series [10] can be described thus: Hemolytic activity in rabbit RBC assessed as hemolysis ratio at 1 ug/ml measured after 3 hrs by microplate reader assay relative to control. The conditions noted are these: rabbit red blood cells (erythrocytes), at 1 µg/mL, read-out: Activity. The series is classed as ADME, cell-based, Oryctolagus cuniculus, Erythrocyte.
Another series has as its system HL-60. In words: Cytotoxicity against human HL-60 cells assessed as reduction in cell viability incubated for 96 hrs by MTT assay. The format is cell-based. The following applies: HL-60, 96 h. (Tetrazolium assays rely on reduction of a dye to a coloured formazan, in cell work by metabolically active cells.)
Series [11] is described as follows: Metabolic stability in mouse liver microsomes assessed as clearance. The format is ADME, Microsome. The following applies: read-out: CLH. Background: Microsomes from liver hold many membrane-bound enzymes, among them those of drug oxidation.
The subject of another series is MCF-10A. Put plainly: Cytotoxicity against human MCF-10A cells assessed as reduction in cell viability incubated for 96 hrs by MTT assay. The following applies: read-out: IC50. The series is classed as cell-based.
In another series the test system is Erythrocyte. In words: Hemolytic activity in rabbit RBC measured after 3 hrs by microplate reader assay. The format is ADME, cell-based, Oryctolagus cuniculus.
The nature of series [12]: Metabolic stability in mouse liver microsomes assessed as half life. The format is ADME, Microsome.
Series [13] can be described thus: Hemolytic activity in rabbit RBC assessed as hemolysis ratio at 16 ug/ml measured after 3 hrs by microplate reader assay relative to control. The format is ADME, cell-based, Oryctolagus cuniculus, Erythrocyte. The following applies: rabbit red blood cells (erythrocytes), at 16 µg/mL, read-out: Activity.
Series [14] is described as follows: Hemolytic activity in rabbit RBC assessed as hemolysis ratio at 8 ug/ml measured after 3 hrs by microplate reader assay relative to control. The following applies: rabbit red blood cells (erythrocytes), at 8 µg/mL, read-out: Activity. The series is classed as ADME, cell-based, Oryctolagus cuniculus, Erythrocyte.
The subject of the next series is PC-3. In words: Cytotoxicity against human PC3 cells assessed as reduction in cell viability incubated for 96 hrs by MTT assay. The series is classed as cell-based. The conditions noted are these: PC-3, 96 h, read-out: IC50.
Series [15] can be described thus: Hemolytic activity in rabbit RBC assessed as hemolysis ratio at 4 ug/ml measured after 3 hrs by microplate reader assay relative to control. The format is ADME, cell-based, Oryctolagus cuniculus, Erythrocyte. The following applies: rabbit red blood cells (erythrocytes), at 4 µg/mL, read-out: Activity.
The next series deals with MDA-MB-231. In words: Cytotoxicity against human MDA-MB-231 cells assessed as reduction in cell viability incubated for 96 hrs by MTT assay. The conditions noted are these: MDA-MB-231, 96 h.
The nature of series [16]: Hemolytic activity in rabbit RBC assessed as hemolysis ratio at 2 ug/ml measured after 3 hrs by microplate reader assay relative to control. The series is classed as ADME, cell-based, Oryctolagus cuniculus, Erythrocyte. The following applies: rabbit red blood cells (erythrocytes), at 2 µg/mL, read-out: Activity.

Converted amounts (≈) assume the structure as drawn.

The term MIC denotes the lowest concentration found to suppress growth. Take `Cc1cccc(C)c1[Se]C(Cn1ccnc1)c1ccc(F)cc1F` (stereo not given): the MIC with Aspergillus fumigatus was determined as 8 µg/mL (≈ 20.4 µM); in the series on Nakaseomyces glabratus it was 0.5 µg/mL (≈ 1.28 µM); in the series on Candida parapsilosis it was 0.06 µg/mL (≈ 0.153 µM); with Candida albicans [1], 0.03 µg/mL (≈ 0.0767 µM); in series [Candida] zeylanoides, 0.13 µg/mL (≈ 0.332 µM); in the series with Candida albicans [2] it was 1 µg/mL. The MIC was found to be 2 µg/mL in the series on Candida albicans [3]; 8 µg/mL with Candida albicans [5]; 0.25 µg/mL (≈ 0.639 µM) in the series with Cryptococcus neoformans; 0.02 µg/mL (≈ 0.0511 µM) with Pichia kudriavzevii; 0.25 µg/mL in the series with Candida albicans [6]; 2 µg/mL with Candida albicans [7]. Also, in the series with Candida albicans [9], the MIC stood at 0.02 µg/mL (≈ 0.0511 µM). For the same compound, the Ratio with Candida albicans [4] and in the series on Candida albicans [8] was 8 each time.
Broadly, the IC50 is the concentration that gives 50% inhibition. For orientation: half-life means the time needed for the level to fall by half in the phase considered. For the compound `Clc1ccc(C(Cn2ccnc2)[Se]Cc2ccccc2Cl)c(Cl)c1` (stereo not given), the MIC against Aspergillus fumigatus turned out to be 2 µg/mL (≈ 4.5 µM); in the series with Nakaseomyces glabratus it was 0.5 µg/mL (≈ 1.12 µM); with Candida parapsilosis, 0.13 µg/mL (≈ 0.292 µM); in the series on Candida albicans [1], 0.02 µg/mL (≈ 0.045 µM); in [Candida] zeylanoides, 1 µg/mL (≈ 2.25 µM); with Candida albicans [2], 1 µg/mL. Further, the MIC in the series on Candida albicans [3] was 0.5 µg/mL; in the series on Candida albicans [5] it was 0.06 µg/mL; against Cryptococcus neoformans it was 0.25 µg/mL (≈ 0.562 µM); in the series with Pichia kudriavzevii it was 0.13 µg/mL (≈ 0.292 µM); with Candida albicans [6], 0.13 µg/mL; in the series with Candida albicans [7], 0.25 µg/mL. For the same compound, in the series with Candida albicans [9], the MIC was determined as 0.01 µg/mL (≈ 0.0225 µM). Further, in series [10], the hemolysis at 3 h, 1 ug/ml was determined as 0%. The IC50 in the series on HL-60 worked out at 1.02 µM; in the series on MCF-10A it was 30.2 µM; in the series with PC-3, 13.1 µM; in the series on MDA-MB-231, 9.06 µM. Further, the CLint scaled in series [11] is 1310 mL/min/kg. Further, the MHC with Erythrocyte was determined as 4 µg/mL. Also, in series [12], the half-life came out at 4.2 min. The hemolysis at 3 h, 16 ug/ml in [13] turned out to be 98.2%. The hemolysis at 3 h, 8 ug/ml in series [14] was 93.2%. Besides, the hemolysis at 3 h, 4 ug/ml in [15] is 58.9%. Besides, the hemolysis at 3 h, 2 ug/ml in [16] came to 3.15%.

The values are drawn from ChEMBL document CHEMBL4813985, “Lead optimization generates selenium-containing miconazole CYP51 inhibitors with improved pharmacological profile for the treatment of fungal infections” (Eur J Med Chem, 2021).
